± gives the expanded uncertainty stated by the source.
Conditions: Liquid, Transpiration method

COC(=O)CCCCC(=O)OC [dimethyl 1,6-hexanedioate]
Conditions	vapor or sublimation pressure [kPa]
293.2 K	0.00253 ± 0.00014
296.2 K	0.00336 ± 0.00018
299.2 K	0.00443 ± 0.00024
302.2 K	0.00586 ± 0.00031
305.2 K	0.0074 ± 0.00039
308.2 K	0.00991 ± 0.00052
310.2 K	0.01133 ± 0.0006
313.3 K	0.01454 ± 0.00076
316.2 K	0.01794 ± 0.00095
319.3 K	0.02356 ± 0.0012
322.2 K	0.02831 ± 0.0015
325.3 K	0.03778 ± 0.002
328.2 K	0.04592 ± 0.0024
331.2 K	0.05704 ± 0.003
334.2 K	0.06981 ± 0.0036

CCOC(=O)c1ccccc1 [ethyl benzoate]
Conditions	vapor or sublimation pressure [kPa]
283.9 K	0.0071 ± 0.0004
286.9 K	0.0093 ± 0.0005
289 K	0.0113 ± 0.0006
292 K	0.0143 ± 0.0008
294.1 K	0.0174 ± 0.0009
295 K	0.0183 ± 0.001
298.1 K	0.0239 ± 0.0012
299.1 K	0.0254 ± 0.0014
301.2 K	0.0312 ± 0.0016
304.2 K	0.039 ± 0.002
307.2 K	0.0472 ± 0.0025
310.1 K	0.0597 ± 0.0031
312.3 K	0.0716 ± 0.0037
315.3 K	0.0862 ± 0.0045
317.3 K	0.1055 ± 0.0056
320.3 K	0.1297 ± 0.0068
323.4 K	0.1656 ± 0.0086
326.4 K	0.2016 ± 0.01
329.5 K	0.2452 ± 0.013
332.5 K	0.2944 ± 0.015
